Laboratory results published in US12486269B2 (Aconcagua Bio, Inc., priority 2024, dated 2025).

Tests used:
[1] = target: T1, human calcitonin receptor (CTR) (Homo sapiens, UniProt P30988); test: Calcitonin Receptor (CTR) cAMP Assay; assay type: cell-based; settings: COS7-human CTR Clone #2 stable cell line, cAMP dynamic 2 kit, 30 min; read-out: Calcitonin Receptor cAMP Stimulation Activity: EC50
T1 construct: expressed in transfected cells; host or cells: COS-7 (COS7-human CTR Clone #2)
T1 sequence (P30988 25-474): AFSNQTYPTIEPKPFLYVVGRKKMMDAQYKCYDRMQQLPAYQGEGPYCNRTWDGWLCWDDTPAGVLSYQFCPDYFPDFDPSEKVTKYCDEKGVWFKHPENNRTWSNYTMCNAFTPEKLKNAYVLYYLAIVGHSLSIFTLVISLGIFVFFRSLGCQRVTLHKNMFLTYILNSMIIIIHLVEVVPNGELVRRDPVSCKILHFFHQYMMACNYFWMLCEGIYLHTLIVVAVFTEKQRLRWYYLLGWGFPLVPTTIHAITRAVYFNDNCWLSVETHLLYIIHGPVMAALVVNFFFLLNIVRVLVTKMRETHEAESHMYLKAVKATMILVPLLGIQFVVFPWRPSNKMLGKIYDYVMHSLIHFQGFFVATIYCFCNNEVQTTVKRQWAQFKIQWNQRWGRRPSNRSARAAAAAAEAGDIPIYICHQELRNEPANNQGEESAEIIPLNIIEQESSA
In short: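 cAMP accumulation was measured by HTRF cAMP dynamic 2 read at 665/615 nm, 1 h at room temperature, with results scaled between vehicle and positive control. Before detection, COS7-human CTR stable cells were stimulated 30 min at 37 °C with compound (4-fold dilutions) in IBMX-containing HBSS/HEPES/casein buffer.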

[2] = target: T2, COS-7/AMY3 (human calcitonin receptor (CTR) and RAMP3) (Homo sapiens, UniProt O60896+P30988); test: Amylin Receptor cAMP Assay II; assay type: cell-based; settings: values marked **: Amylin Receptor cAMP Assay II; COS-7/AMY3 cells, cAMP dynamic 2 kit, 30 min; read-out: Amylin Receptor cAMP Stimulation Activity: EC50
T2 construct: expressed in transfected cells; host or cells: COS-7
In short: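 Agonist-induced cAMP was quantified by HTRF ratio at 665/615 nm and expressed as % of the window from vehicle to MAX control. Stimulation lasted 30 min at 37 °C in HBSS/20 mM HEPES/0.5 mM IBMX/0.1% casein, using stable human CTR+RAMP3 (AMY3) COS-7 cells at 2000 per well.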

T2 sequence (O60896 24-148, one chain of several): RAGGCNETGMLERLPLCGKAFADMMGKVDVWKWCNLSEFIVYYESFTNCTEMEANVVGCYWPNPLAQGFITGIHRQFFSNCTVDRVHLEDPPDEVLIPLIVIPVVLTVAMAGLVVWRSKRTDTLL

SMILES	EC50 [1] [nM]	EC50 [2] [nM]
COc1cccc2c1CC[C@H]2Nc1nccc2cc(-c3c4c(nc(C[C@H]5COc6cc(F)ccc65)c3-c3n[nH]c(=O)o3)[C@@H]3CCCN3C4=O)sc12 [Compound 217, 5-((S)-2-(((R)-6-fluoro-2,3-dihydrobenzofuran-3-yl)methyl)-4-(7-(((R)-4-methoxy-2,3-dihydro-1H-inden-1-yl)amino)thieno[2,3-c]pyridin-2-yl)-5-oxo-7,8,9,9a-tetrahydro-5H-pyrido[2,3-a]pyrrolizin-3-yl)-1,3,4-oxadiazol-2(3H)-one]	0.706	47.8
O=C1c2c(nc(CCc3ccc(F)cc3)c(-c3n[nH]c(=O)o3)c2-c2ccc3c(Cc4ccc(F)cc4F)nccc3c2)[C@@H]2CCCN12 [Compound 219, (S)-5-(4-(1-(2,4-difluorobenzyl)isoquinolin-6-yl)-2-(4-fluorophenethyl)-5-oxo-7,8,9,9a-tetrahydro-5H-pyrido[2,3-a]pyrrolizin-3-yl)-1,3,4-oxadiazol-2(3H)-one]	27.4	437
O=C1c2c(nc(CCc3ccc(F)cc3)c(-c3n[nH]c(=O)o3)c2-c2ccc3c(Cc4ccc(F)cc4F)noc3c2)[C@@H]2CCCN12 [Compound 221, (S)-5-(4-(3-(2,4-difluorobenzyl)benzo[d]isoxazol-6-yl)-2-(4-fluorophenethyl)-5-oxo-7,8,9,9a-tetrahydro-5H-pyrido[2,3-a]pyrrolizin-3-yl)-1,3,4-oxadiazol-2(3H)-one]	15.5	865
O=C1c2c(nc(CCc3ccc(F)cc3)c(-c3n[nH]c(=O)o3)c2-c2ccc3c(Cc4ccc(F)cn4)noc3c2)[C@@H]2CCCN12 [Compound 222, (S)-5-(2-(4-fluorophenethyl)-4-(3-((5-fluoropyridin-2-yl)methyl)benzo[d]isoxazol-6-yl)-5-oxo-7,8,9,9a-tetrahydro-5H-pyrido[2,3-a]pyrrolizin-3-yl)-1,3,4-oxadiazol-2(3H)-one]	12.8	511
N#Cc1ccc(Cn2ccc3cc(-c4c5c(nc(CCc6ccc(F)cc6)c4-c4n[nH]c(=O)o4)[C@@H]4CCCN4C5=O)cnc32)nc1 [Compound 223, (S)-6-((5-(2-(4-fluorophenethyl)-5-oxo-3-(5-oxo-4,5-dihydro-1,3,4-oxadiazol-2-yl)-7,8,9,9a-tetrahydro-5H-pyrido[2,3-a]pyrrolizin-4-yl)-1H-pyrrolo[2,3-b]pyridin-1-yl)methyl)nicotinonitrile]	27.6	758

The remaining compounds from weak to strong by EC50 [1], led by results:

EC50 [1] [nM]	EC50 [2] [nM]	SMILES
152	1340	COc1cccc2c1CC[C@H]2Nc1cc(C(F)(F)F)cn2cc(-c3c4c(nc(CCc5ccc(F)cc5)c3-c3n[nH]c(=O)o3)[C@@H]3CCCN3C4=O)nc12 [Compound 216, 5-((S)-2-(4-fluorophenethyl)-4-(8-(((R)-4-methoxy-2,3-dihydro-1H-inden-1-yl)amino)-6-(trifluoromethyl)imidazo[1,2-a]pyridin-2-yl)-5-oxo-7,8,9,9a-tetrahydro-5H-pyrido[2,3-a]pyrrolizin-3-yl)-1,3,4-oxadiazol-2(3H)-one]
20.5	11400	O=C1c2c(nc(CCc3ccc(F)cc3)c(-c3n[nH]c(=O)o3)c2-c2ccc3c(c2)CCCN3Cc2ccc(F)cc2F)[C@@H]2CCCN12 [Compound 220, (S)-5-(4-(1-(2,4-difluorobenzyl)-1,2,3,4-tetrahydroquinolin-6-yl)-2-(4-fluorophenethyl)-5-oxo-7,8,9,9a-tetrahydro-5H-pyrido[2,3-a]pyrrolizin-3-yl)-1,3,4-oxadiazol-2(3H)-one]
11.5	89.3	COc1cccc2c1CC[C@H]2Nc1nccc2cc(-c3c4c(nc(C[C@@H]5COc6cc(F)ccc65)c3-c3n[nH]c(=O)o3)[C@@H]3CCCN3C4=O)sc12 [Compound 218, 5-((S)-2-(((S)-6-fluoro-2,3-dihydrobenzofuran-3-yl)methyl)-4-(7-(((R)-4-methoxy-2,3-dihydro-1H-inden-1-yl)amino)thieno[2,3-c]pyridin-2-yl)-5-oxo-7,8,9,9a-tetrahydro-5H-pyrido[2,3-a]pyrrolizin-3-yl)-1,3,4-oxadiazol-2(3H)-one]
